ChEMBL document CHEMBL3621168, “Elucidating new structural features of the triazole scaffold for the development of mPGES-1 inhibitors” (Medchemcomm, 2015)

Experiments:
[1] = target: T1, Prostaglandin E synthase (Homo sapiens, UniProt O14684); test: Inhibition of mPGES1 isolated from human A549 cells after 15 mis by RP HPLC analysis; type: cell-free
T1 sequence (O14684 whole entry): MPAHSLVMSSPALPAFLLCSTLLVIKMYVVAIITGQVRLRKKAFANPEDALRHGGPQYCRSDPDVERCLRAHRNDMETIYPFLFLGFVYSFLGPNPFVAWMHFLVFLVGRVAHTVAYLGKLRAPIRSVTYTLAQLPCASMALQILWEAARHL

[2] = target: T2, Prostaglandin E synthase (Homo sapiens) (UniProt O14684); test: Inhibition of mPGES1 isolated from human A549 cells at 10 uM after 15 mis by RP HPLC analysis; type: cell-free
T2 sequence (whole entry): T1 sequence (O14684 whole entry)

Compound	IC50 [1] [µM]	inhibition [2] [%]
N#Cc1ccc(-n2cc(COc3cccc(C(F)(F)F)c3)nn2)cc1C(F)(F)F	> 30	20
N#Cc1ccc(-n2cc(COc3ccc(C(F)(F)F)cc3)nn2)cc1C(F)(F)F	> 30	20
N#Cc1ccc(-n2nnc(COc3ccc([N+](=O)[O-])cc3C(F)(F)F)c2I)cc1C(F)(F)F	0.7	
N#Cc1ccc(-n2cc(COc3ccc([N+](=O)[O-])cc3C(F)(F)F)nn2)cc1C(F)(F)F	> 30	20
O=[N+]([O-])c1ccc(OCc2cn(-c3cccc(C(F)(F)F)c3)nn2)c(C(F)(F)F)c1	> 30	20
